Assay results as given in US20110111016A1, “NON-DNA BASE-CONTAINING POLYNUCLEOTIDE COMPOSITIONS AND THEIR USE FOR THE MODULATION OF IMMUNE RESPONSES” (priority 2009, published 2011).

Assays:
human PBMC [1] = experiment: Induction of cytokines and chemokines from human PBMC, comparison with CpG polynucleotides (Milliplex MAP kit); type: cell-based; conditions: for Cytokine, IL-6 / Cytokine, IL-10 / Cytokine, MCP-1 / Cytokine, RANTES (CCL5): human PBMC culture supernatant, 48 h, final concentration 10 μg/mL; for Chemokine (MCP-1, RANTES) inducing activity towards human PBMC (in words) / Interleukin (cytokine) inducing activity towards human PBMC (in words): in comparison to LPS and MCC, Table 14
Description: LPS and MCC were included as positive controls as described in Example 7. PBMC were isolated from whole blood using standard Ficoll-Paque Plus (GE Healthcare Life Sciences, Baie d'Urfé, QC, Canada) gradient centrifugation, and placed in tissue culture plates at a concentration of 1×10^6 cells/mL (total volume: 1 mL in RPMI 1640 medium containing 10% heat-inactivated FBS (both from Wisent, St-Bruno, QC, Canada) and 50 μg/mL gentamycin sulfate (Sigma-Aldrich Canada, Oakville, ON, Canada). Non-DNA base-containing polynucleotide SEQ ID NOs: 1, 2, 3, 4, 5, 6, 7, 8 and 9 were added to separate wells to give a final concentration of 10 μg/mL, LPS was added to give a final concentration of 10 μg/mL, and the non-CpG 4010, CpG 2336, CpG 2429 and CpG 7909 polynucleotides, SEQ ID NOs: 31, 33, 35 and 34, respectively, were added to give a final concentration of 10 μg/mL.
The cells were then cultivated for 48 h. Cytokines (interleukins IL-6 and IL-10, chemokines MCP-1 and RANTES) in the culture supernatant were measured using a Milliplex™ MAP kit (Millipore Corporation, Billerica, Mass., USA) on a Bio-Plex 200 system (Bio-Rad Laboratories, Hercules, Calif., USA). MCP-1, also known as monocyte chemotactic protein, is an essential chemokine required for effective monocyte and myeloid dendritic cell activation and trafficking across endothelial and epithelial barriers (see for example Henkel et al, 2004 Ann. Neurol. 55:221-235), and RANTES (Regulated on Activation, Normal T cell Expressed and Secreted, now more commonly known as CCL5) is produced by memory phenotype T cells and is chemotactic for and activates T-cells (see for example Swanson et al, 2002 Immunity 17:605-615).

human PBMC [2] = experiment: Induction of cytokines from human PBMC (ELISA cytokine capture assay); type: cell-based; conditions: PBMC of 3 healthy adults, 48 h; increase two-fold that of background control; SEQ ID NOs 1-3 100 μg/mL, CpG 2006 and MCC 1-100 μg/mL, LPS 10 μg/mL
Excerpt: A number of immune adjuvants are known to be capable of eliciting cytokines from human PBMC cells. Examples of such adjuvants are alum, lipopolysaccharide, monophosphoryl lipid A, CpG-containing polynucleotides and non-CpG-containing ODN's, as well as mycobacterial cell wall-DNA complex (MCC). […] PBMC were isolated from whole blood using standard Ficoll-Paque (GE Healthcare Life Sciences, Baie d'Urfé, QC, Canada) gradient centrifugation, and placed in tissue culture plates at a concentration of 10^6 cells/mL (total volume: 1 mL in RPMI 1640 medium containing 10% heat-inactivated FBS, both from Wisent, St-Bruno, QC, Canada) and 50 μg/mL gentamycin sulfate (Sigma-Aldrich Canada, Oakville, ON, Canada). SEQ ID NOs: 1, 2 or 3 were added to give a final concentration of 100 μg/mL, and the cells were cultivated for 48 h. Cytokines (IL-1β, IL-2, IL-6, IL-10 and IL-12p40) in the supernatant at the end of incubation were determined by ELISA using a cytokine capture assay process (Biosource, Camarillo, Calif.). SEQ ID NO: 32 CpG 2006 ODN (1-100 μg/mL, 5′-[…]-3′, […]), MCC (1-100 μg/mL) and LPS (10 μg/mL) were used as positive controls.

Substance	Cytokine, IL-6 (human PBMC [1])	Cytokine, IL-10 (human PBMC [1])	Cytokine, MCP-1 (human PBMC [1])	Cytokine, RANTES (CCL5) (human PBMC [1])	Chemokine (MCP-1, RANTES) inducing activity towards human PBMC (in words) (human PBMC [1])	Interleukin (cytokine) inducing activity towards human PBMC (in words) (human PBMC [1])	Number of individuals responding, IL-1β (human PBMC [2])	Number of individuals responding, IL-2 (human PBMC [2])	Number of individuals responding, IL-6 (human PBMC [2])	Number of individuals responding, IL-10 (human PBMC [2])	Number of individuals responding, IL-12p40 (human PBMC [2])
NebGGTGNeb (DNA NGGTGN; Nebularine at both ends, sugar and linkages not given here, further chemistry not given here) [SEQ ID NO: 1, 5′-OH, 3′-OH non-DNA base-containing polynucleotide]	26 pg/mL	0 pg/mL	160 pg/mL	93 pg/mL	marginal or no	marginal or no	3/3	0/3	3/3	0/3	3/3
IIGTII [SEQ ID NO: 3]	1 pg/mL	0 pg/mL	57 pg/mL	72 pg/mL	marginal or no	marginal or no	0/3	0/3	3/3	0/3	0/3
UUGTUU [SEQ ID NO: 2]	6 pg/mL	0 pg/mL	196 pg/mL	66 pg/mL	marginal or no	marginal or no	0/3	0/3	1/3	0/3	3/3
